Source: patent US5403930A, “Substituted salicylic acids” (Pharmacia AB, priority 1991, dated 1995)

Assays:
[1] = system: human lymphocytes; experiment: Concanavalin A-induced proliferation of human lymphocytes ([3H]-thymidine); assay type: cell-based; settings: Lymphocyte, 72 h, 250 μM test compound, 2.5 μg/ml Concanavalin A, 3 days, 2 experiments
Description: Effect of Compounds on Human Lymphocyte Proliferation Peripheral blood mononuclear cells were isolated from heparinized blood from healthy volunteers by density gradient centrifugation as described by Bain and Pshyk, Transplantation Proc, 4:163-164 (1972). Cell proliferation induced by Concanavalin A was measured in a standard assay such as described in Soderstrom et at., Scand J Immunol, 32:503-516 (1990) using 5% fetal bovine serum in the culture medium. The reaction mixture (final concentrations) consisted of 200 000 cells stimulated with 2.5 μg/ml Concanavalin A and test compounds in a total volume of 0.2 ml. The test compounds were added at the start of the assay, which was run for a total of three days with addition ofradioactive [3H]-thymidine during the last 18 h. Cell bound radioactivity was measured in a liquid scintillation counter.

[2] = system: Human Granulocytes; experiment: FMLP-induced superoxide production of human granulocytes, 10 μM test compound; assay type: cell-based; settings: 10 nM FMLP, 400 000 granulocytes
Description: Effects of Test Compounds on Superoxide Production of Human Granulocytes
Granulocytes were isolated from the heparinized blood from healthy volunteers. The superoxide assay was essentially that of J. M. McCord and I Fridovich (J. Biol. Chem. 244:6049-6055 (1969)) as modified by G Carlin et al. (Pharmacol. Toxicol 65:121-127 (1989)). The reaction mixture contained (final concentrations) 125 μM cytochrome C in Dulbeccos phosphate buffer with Mg and Ca, 10 μM test compound and 400 000 granulocytes treated with 5 μg/ml of cytochalasin B immediately before the experiment. This reaction mixture was preincubated at 37° C. for 10 minutes, whereafter 10 nM N-formyl-L-methionyl-L-leucyl-L-phenylalanine was added to start the reaction, making the final volume 1 ml. After 10 minutes the tubes were centrifuged and the absorbance of the supernatant at 540 and 550 nm was measured. The superoxide production was expressed as the difference in absorbance at these wavelengths.

Compound	inhibition at 250 µM [1] [%]	inhibition at 10 µM [2] [%]
O=C(O)c1cc(C#Cc2ccc(S(=O)(=O)Nc3ccccn3)cc2)ccc1O [Example 1, 2-Hydroxy-5-[[4-[(2-pyridinylamino)sulfonyl]phenyl]ethynyl]benzoic acid]	95.6	71
O=C(O)c1cc(C=Cc2ccc(S(=O)(=O)Nc3ccccn3)cc2)ccc1O [Example 3, 2-Hydroxy-5-[2-[4-[(2-pyridinylamino)sulfonyl]phenyl]ethenyl]benzoic acid]	73.6	55.7
Cc1cccnc1NS(=O)(=O)c1ccc(C=Cc2ccc(O)c(C(=O)O)c2)cc1 [Example 4, 2-Hydroxy-5-[2-[4-[(3-methyl-2-pyridinylamino)sulfonyl]phenyl]ethenyl]benzoic acid]	92.3	76.9
CC(C)COC(=O)c1cc(C=Cc2ccc(S(=O)(=O)Nc3ccccn3)cc2)ccc1O [Example 5, Isobutyl 2-hydroxy-5-[2-[4-[(2-pyridinylamino)sulfonyl]phenyl]ethenyl]benzoate]	–	25.8
Cc1ccc(NS(=O)(=O)c2ccc(C=Cc3ccc(O)c(C(=O)O)c3)cc2)nc1 [Example 15, 2-Hydroxy-5-[2-[4-[(5-methyl-2-pyridinylamino)sulfonyl]phenyl]ethenyl]benzoic acid]	93.9	–
Cc1cc(NS(=O)(=O)c2ccc(C=Cc3ccc(O)c(C(=O)O)c3)cc2)no1 [Example 18, 2-Hydroxy-5-[2-[4-[(5-methyl-3-isoxazolyl)aminosulfonyl]phenyl]ethenyl]benzoic acid]	43.8	44.2
Cc1ccnc(NS(=O)(=O)c2ccc(C=Cc3ccc(O)c(C(=O)O)c3)cc2)n1 [Example 19, 2-Hydroxy-5-[2-[4-[(4-methyl-2-pyrimidyl)amino-sulfonyl]phenyl]ethenyl]benzoic acid ethanol solvate (2:1)]	10.3	65.9
O=C(O)c1cc(C=Cc2ccc(S(=O)(=O)Nc3cnccn3)cc2)ccc1O [Example 20, 2-Hydroxy-5-[2-[4-[(2-pyrazinyl)aminosulfonyl]phenyl]ethenyl]benzoic acid]	34.8	35.1
Cc1ccnc(NS(=O)(=O)c2ccc(C=Cc3ccc(O)c(C(=O)O)c3)cc2)c1 [Example 25, 2-Hydroxy-5-[2-[4-[(4-methyl-2-pyridinylamino)sulfonyl]phenyl]-ethenyl]benzoic acid ethanol solvate (2:1)]	–	45.5
O=C(O)c1cc(CCc2ccc(S(=O)(=O)Nc3ccccn3)cc2)ccc1O [Example 26, 2-Hydroxy-5-[2-[4-[(2-pyridinylamino)sulfonyl]phenyl]ethyl]benzoic acid]	16	26.8
Cc1cccnc1NS(=O)(=O)c1ccc(CC(=O)c2ccc(O)c(C(=O)O)c2)cc1 [Example 27, 2-Hydroxy-5-[[4-[(3-methyl-2-pyridinylamino)sulfonyl]phenyl]acetyl]benzoic acid]	37.3	32.7
O=C(Cc1ccc(S(=O)(=O)Nc2ccccn2)cc1)c1ccc(O)c(C(=O)O)c1 [Example 28]	15	17.9
O=C(O)c1cc(C#Cc2ccc(S(=O)(=O)Nc3ncccc3OCc3ccccc3)cc2)ccc1O [Example 31, 2-Hydroxy-5-[[4-[[3-(phenylmethoxy)-2-pyridinylamino]sulfonyl]phenyl]ethynyl]benzoic acid]	100	–
O=C(O)c1cc(C#Cc2ccc(S(=O)(=O)Nc3ccc(Cl)cn3)cc2)ccc1O [Example 32, 5-[[4-[(5-Chloro-2-pyridinylamino)sulfonyl]phenyl]ethynyl]-2hydroxybenzoic acid]	100	–
O=C(O)c1cc(C#Cc2ccc(S(=O)(=O)Nc3nc4ccc(F)cc4s3)cc2)ccc1O [Example 34]	98	–
CN(c1ccccn1)S(=O)(=O)c1ccc(C#Cc2ccc(O)c(C(=O)O)c2)cc1 [Example 35, 2-Hydroxy-5-[[4-[N-methyl-(2-pyridinyl)aminosulfonyl]phenyl]ethynyl]benzoicacid]	99	–
